In this experiment the test system is 883617-216-R-J1-PDC complex spheroids, growth, % test/control. As to the kind of experiment: Anticancer human tumor 883617-216-R-J1-PDC patient-derived bladder carcinoma cell line growth inhibition [AhR]. Particulars: for viability, T/C: stronger effect = lower value; for IC50: curve of compound. The text has this:
Multicellular complex tumor spheroid response to aryl hydrocarbon receptor antagonists in combination with a variety of drugs and investigational agents in selected tumor cell lines
The current study was undertaken to assess response to aryl hydrocarbon receptor antagonists in combination with standard-of-care drugs and investigational agents in solid tumor complex spheroid models. Complex spheroids include a stromal component modeled by human endothelial cells (HUVEC) and fibroblasts modeled by human mesenchymal stem cells (MSCs). The concentration ranges selected for each drug and investigational agent were based upon clinically achievable concentrations if the clinical Cmax of the agent was known.
Compounds. The drugs and investigational agents: BAY 2416964 (NSC825713), GNF351 (NSC835774), CH-223191 (NSC835775), CPI-455 (NSC825282), aza-TdCyd (NSC777586), decitabine (NSC127716), belinostat (NSC758774), entinostat (NSC756642), pevonedistat (NSC761192), tazemetostat (NSC777109), talazoparib (NSC765396), olaparib (NSC753686), selinexor (NSC780203), nedisertib (M3814, NSC802822), bortezomib (NSC756655), venetoclax (NSC766270), doxorubicin (NSC123127), elimusertib (BAY189344, NSC800525), ceralasertib (AZD6738, NSC777638), TAK-243 (NSC785004), alisertib (NSC759677), etoposide (NSC141540), topotecan (NSC609699), eribulin (NSC707389), gemcitabine (NSC613327), carboplatin (NSC241240), cisplatin (NSC119875), and SN-38 (NSC673596) were obtained from the National Cancer Institute (NCI) Developmental Therapeutics Program Chemical Repository (32). The FDA-approved anticancer drug set is available from the Developmental Therapeutics Program at https://dtp.cancer.gov/organization/dscb/obtaining/available plates.htm. […] The stock solutions were prepared in dimethyl sulfoxide (DMSO, Sigma-Aldrich, St. Louis, MO, cat. D2650), except for the platinum compounds which were prepared in saline (Quality Biological, Gaithersburg, MD, cat. 114-055-101), at 800-fold the tested concentration and stored at -70 degrees C prior to their use. All drugs and investigational agents were tested over a range starting from a high concentration at or near the clinical Cmax and decreasing in half-log increments. If the clinical Cmax for an agent had not been determined, the highest concentration tested was 10 microM (Table 1).
Cell Culture. All cells were maintained in an incubator at 37 degrees C and 5% CO2 with 95% humidity. The PDC lines were cultured according to standard operating procedures established by the NCI PDMR (https://pdmr.cancer.gov). Briefly, all PDCs were thawed and cultured in Matrigel-coated flasks prepared with a working solution of 1X Ham's F-12 nutrient mix, without supplementation (Invitrogen, Waltham, MA, cat. 11765054), 100 U/mL penicillin-streptomycin (Invitrogen, cat. 15140122), and 2.5% Matrigel (Corning Inc., Corning, NY, cat. 354248) for the first three passages. All PDCs were cultured in complete DMEM/F-12 media containing advanced DMEM/F-12 (Invitrogen, cat. 12634028), 4.9% defined fetal bovine serum, heat inactivated (HyClone Laboratories Inc., Logan, UT, cat. SH30070.03HI), 389 ng/mL hydrocortisone (Sigma-Aldrich, cat. H4001), 9.7 ng/mL human EGF recombinant protein (Invitrogen, cat. PHG0313), 23.4 microg/mL adenine (Sigma-Aldrich, cat. A2786), 97.3 U/mL penicillin-streptomycin (Invitrogen, cat. 15140122), 1.9 mM L-glutamine (Invitrogen, cat. 25030081), and 9.7 microM Y-27632 dihydrochloride (Tocris Bioscience, Bristol, United Kingdom, cat. 1254). The PDCs were cultured in complete DMEM/F12 media without 10 microM Y-27632 dihydrochloride for at least two passages prior to the screen. The established cell lines NCI-H1341 and […] were cultured in DMEM/F-12, HEPES (Invitrogen, cat. 11330032), 5% defined fetal bovine serum (HyClone Laboratories Inc., cat. SH30070.03), ITS premix universal culture supplement [insulin (5 microg/mL), transferrin (5 microg/mL), and selenious acid (5 ng/mL)] […]

Where “and” joins values, the source holds several entries; their conditions need not be identical. Equal entries are not always repeated.
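Note: exposure lasted 7 days after dosing on day 3 of spheroid growth.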

`Cn1ncnc1C1c2n[nH]c(=O)c3cc(F)cc(c23)NC1c1ccc(F)cc1` (configuration not stated): the IC50 was over 0.1 µM. The viability, T/C (compound 0.000316 µM) is 105% (2×) and 85.5%. The viability, T/C (compound 0.001 µM) was 111% and 107% and 106%. Also, the viability, T/C (compound 0.00316 µM) is 103% and 101% and 76.3%. Further, the viability, T/C (compound 0.01 µM) is 97.2% and 91.8% and 87.1%. Moreover, for the setting “compound 0.0316 µM”, the viability, T/C was 82.2% and 83.4% and 63.1%. Moreover, the viability, T/C (compound 0.1 µM) was 75.4% and 77% and 89.1%.

In the case of `NS(=O)(=O)OCC1CC(n2ccc3c(NC4CCc5ccccc54)ncnc32)CC1O` (configuration not stated), the IC50 is 3.12 µM and 2.45 µM and 2.01 µM. For the same compound, the viability, T/C (compound 0.0316 µM) was 154% and 163% and 90.4%. Moreover, the viability, T/C (compound 0.1 µM) is 209% and 200% and 81.5%. Also, where the note is “compound 0.316 µM”, the viability, T/C was 214% and 242% and 83.6%. In addition, the viability, T/C (compound 1 µM) was 140% and 130% and 64%. The viability, T/C (compound 3.16 µM) was 48.6% and 34.8% and 33.6%. Also, the viability, T/C (compound 10 µM) was 24.7% and 20.3% and 48.3%.

For `Nc1ccccc1NC(=O)c1ccc(CNC(=O)OCc2cccnc2)cc1`, the IC50 is 1.15 µM and 1.39 µM and 4.4 µM. The viability, T/C (compound 0.0316 µM) is 96.9% and 100% and 89.9%. The viability, T/C (compound 0.1 µM) was 102% and 111% and 88.5%. Further, the viability, T/C (compound 0.316 µM) is 86.1% and 82.7% and 81.7%. In addition, the viability, T/C (compound 1 µM) was 52.8% and 62.3% and 78.8%. Under “compound 3.16 µM”, the viability, T/C was 20% and 24.2% and 63.7%. In addition, the viability, T/C (compound 10 µM) is 0.83% and 1.59% and 18.8%.

Consider `Nc1ccn(C2OC(CO)C(O)C2(F)F)c(=O)n1` (configuration not stated), for which the viability, T/C was 28.9% and 105% and 26.2% (compound 0.0316 µM); 28.2% and 135% and 27.1% (compound 0.1 µM); 32% and 64% and 25.9% (compound 0.316 µM); 37% and 80.2% and 30.9% (compound 1 µM); 40.3% and 118% and 35.9% (compound 3.16 µM); 37.1% and 79.3% and 35.7% (compound 10 µM).

On to `Nc1ncn(C2CC(O)C(CO)O2)c(=O)n1` (configuration not stated), for which the IC50 was over 1 µM. Also, the viability, T/C (compound 0.00316 µM) was 88.2% and 94.6% and 84.1%. For the same compound, the viability, T/C (compound 0.01 µM) was 93.2% and 102% and 118%. For the same compound, where the note is “compound 0.0316 µM”, the viability, T/C is 94.7% and 90.6% and 73.1%. The viability, T/C (compound 0.1 µM) is 89.7% and 97% and 93.9%. The viability, T/C (compound 0.316 µM) is 85.9% and 82.2% and 113%. Also, under “compound 1 µM”, the viability, T/C is 76.2% and 75.2% and 94.4%.

As for `Nc1ncn(C2CC(O)C(CO)S2)c(=O)n1` (configuration not stated), the IC50 was over 0.3 µM. Further, the viability, T/C (compound 0.000949 µM) is 101% and 103% and 61.3%. Moreover, the viability, T/C (compound 0.003 µM) is 114% and 103% and 79.2%. In addition, the viability, T/C (compound 0.00949 µM) is 93.2% and 103% and 71.2%. Besides, the viability, T/C (compound 0.03 µM) was 97.5% and 101% and 64%. Further, under “compound 0.0949 µM”, the viability, T/C was 88.2% and 99% and 72.8%. Further, where the note is “compound 0.3 µM”, the viability, T/C was 78.9% and 82.5% and 87.1%.

For `O=C(C=Cc1cccc(S(=O)(=O)Nc2ccccc2)c1)NO`, the IC50 is 2.13 µM and 2.25 µM and 2.17 µM. For the same compound, the viability, T/C (compound 0.0316 µM) was 107% and 95.8% and 72.5%. In addition, the viability, T/C (compound 0.1 µM) is 112% and 96.7% and 77.7%. In addition, the viability, T/C (compound 0.316 µM) is 92.8% and 76% and 74.6%. Besides, the viability, T/C (compound 1 µM) was 68.9% and 73.4% and 93.9%. Besides, under “compound 3.16 µM”, the viability, T/C was 40.8% (2×) and 35.7%. For the same compound, the viability, T/C (compound 10 µM) was 2.89% and 2.67% and 2.49%.

In the case of `O=C(C=Cn1cnc(-c2cc(C(F)(F)F)cc(C(F)(F)F)c2)n1)NNc1cnccn1`, the IC50 is 0.552 µM and 0.386 µM and 0.803 µM. Besides, for the setting “compound 0.00949 µM”, the viability, T/C is 89.8% and 81.2% and 74.5%. Further, the viability, T/C (compound 0.03 µM) is 88.8% and 78.5% and 89%. For the setting “compound 0.0949 µM”, the viability, T/C is 67.4% and 63% and 65.5%. The viability, T/C (compound 0.3 µM) is 56.7% and 51.7% and 68.9%. For the same compound, where the note is “compound 0.949 µM”, the viability, T/C is 45.9% and 42.6% and 45.6%. In addition, the viability, T/C (compound 3 µM) was 28.2% and 30.1% and 35.2%.

With `O=C(c1cc(Cc2n[nH]c(=O)c3ccccc23)ccc1F)N1CCN(C(=O)C2CC2)CC1`, the IC50 was over 10 µM. The viability, T/C (compound 0.0316 µM) is 101% and 100% and 93%. Moreover, the viability, T/C (compound 0.1 µM) is 89.1% and 106% and 100%. In addition, the viability, T/C (compound 0.316 µM) is 95.9% and 94.9% and 112%. For the same compound, the viability, T/C (compound 1 µM) was 85.9% and 97.1% and 102%. The viability, T/C (compound 3.16 µM) is 88% and 93.1% and 105%. Further, for the setting “compound 10 µM”, the viability, T/C was 70.5% and 76.4% and 105%.

The record behind these values is PubChem BioAssay AID1919004 (Molecular Pharmacology Branch, DTP, NCI, 2023).
